What is called MIC is the smallest concentration in the dilution series that meets the test's criterion for growth inhibition. The low end stands for inhibition by little substance, the high end for a need for much substance.

The structures appear in SMILES notation.

One assay relates to S. pneumoniae. Put plainly: Antibacterial activity. The format is cell-based. Particulars: Streptococcus pneumoniae.
The subject of the next assay is S. pyogenes. Put plainly: Antibacterial activity. The format is cell-based. Particulars: Streptococcus pyogenes.
Another assay has as its system Gram-negative bacteria. The conditions noted are these: general statement, no reference given; cited from earlier work.

Take `C=C(NC(=O)C(=C)NC(=O)c1csc(C2=N[C@@H]3c4csc(n4)[C@H]4NC(=O)c5csc(n5)[C@H]([C@](C)(O)[C@@H](C)O)NC(=O)[C@H]5CSC(=N5)/C(=C/C)NC(=O)[C@H]([C@@H](C)O)NC(=O)c5csc(n5)[C@]3(CC2)NC(=O)[C@H](C)NC(=O)C(=C)NC(=O)[C@H](C)NC(=O)[C@H]([C@@H](C)CC)N[C@@H]2C=Cc3c([C@H](C)O)cc(nc3[C@H]2O)C(=O)O[C@@H]4C)n1)C(N)=O` [Compound 1, Thiostrepton]: the MIC in the assay with S. pneumoniae and with S. pyogenes was less than 1 ng/mL in each case. Moreover, in the assay on Gram-negative bacteria, the “activity against Gram-negative bacteria” value is “inactive”.
